Drawing on patent US20100113607A1, “Pharmaceutical Compositions” (priority 2000, published 2010), this text covers clinical effectiveness for 1 compound.

In this test the test system is onychomycosis. The test is described as follows: Topical treatment of a laser-perforated nail of a patient suffering from onychomycosis. The format is in vivo, human. The conditions noted are these: composition containing 10% terbinafine by total weight, administered to laser-perforated nail, once daily for 12 weeks. The procedure: A composition containing 10% terbinafine based on the total weight of the composition is prepared and administered to a laser-perforated nail of a patient suffering from onychomycosis once daily for 12 weeks.

The structures appear in SMILES notation.

In the case of `CN(C/C=C/C#CC(C)(C)C)Cc1cccc2ccccc12` [terbinafine], the clinical effectiveness result was “progress of clinical effectiveness is seen with growth of the healthy nail”.
